Laboratory results published in patent US20190216093A1, “COMPOSITIONS AND RELATED METHODS FOR AGRICULTURE” (priority 2017, published 2019).
“Also recorded” adds a separate entry of the source.

Tests used:
endosymbiotic Buchnera = assay: Buchnera/aphid DNA copy numbers by qPCR; format: in vivo, Buchnera aphidicola
Method: (§1) After 7 days of treatment, DNA was extracted from multiple aphids from each treatment group. Briefly, the aphid body surface was sterilized by dipping the aphid into a 6% bleach solution for approximately 5 seconds. Aphids were then rinsed in sterile water and DNA was extracted from each individual aphid using a DNA extraction kit (Qiagen, DNeasy kit) according to manufacturer's instructions. DNA concentration was measured using a nanodrop nucleic acid quantification, and Buchnera and aphid DNA copy numbers were measured by qPCR. […]
(§2) After 8 days of treatment, DNA was extracted from multiple aphids from each treatment group. Briefly, the aphid body surface was sterilized by dipping the aphid into a 6% bleach solution for approximately 5 seconds. Aphids were then rinsed in sterile water and DNA was extracted from each individual aphid using a DNA extraction kit (Qiagen, DNeasy kit) according to manufacturer's instructions. DNA concentration was measured using a nanodrop nucleic acid quantification, and Buchnera and aphid DNA copy numbers were measured by qPCR.
as §2, with “from the remaining” for “from multiple”, “aphids in” for “aphids from”
(§3) After 7 of treatment, DNA was extracted from the remaining aphids in each treatment group. Briefly, the aphid body surface was sterilized by dipping the aphid into a 6% bleach solution for approximately 5 seconds. Aphids were then rinsed in sterile water and DNA was extracted from each individual aphid using a DNA extraction kit (Qiagen, DNeasy kit) according to manufacturer's instructions. DNA concentration was measured using a nanodrop nucleic acid quantification, and Buchnera and aphid DNA copy numbers were measured by qPCR.
as §3, with “Briefly,” for “After 7 of treatment, DNA was extracted from the remaining aphids in each treatment group. Briefly,”
as §1, with “3” for “7”, “the remaining living” for “multiple”

[1] = system: Acyrthosiphon pisum aphids; assay: Aphid developmental stage monitoring; format: in vivo; settings: for aphids that did not mature further than the 4th instar stage: eNASCO, 11 days post-treatment
[2] = system: Acyrthosiphon pisum aphids; assay: Aphid survival monitoring; format: in vivo
[3] = system: gram-negative and gram-positive organisms; settings: cited from earlier work
[4] = system: ApGLNT1 glutamine transporter; settings: Price et al., 2014 PNAS; cited from earlier work
Plasmodium falciparium = settings: previous study (Saliba et al., 2005); cited from earlier work
[5] = system: Acyrthosiphon pisum aphids; assay: Aphid fecundity (offspring production); format: in vivo; settings: for aphid reproduction: 10 or 100 uM pantothenol
Method: In addition, the developmental stage (1st, 2nd, 3rd, 4th, 5th, and 5R (5th that has reproduced) instar) was determined daily throughout the experiment. Once an aphid reached the 4th instar stage, they were given their own artificial feeding system in a deep petri dish so that fecundity could be monitored once they reached adulthood.
(§4) For adult aphids, new nymphs were counted daily and then discarded. At the end of the experiments, fecundity was measured in two ways: 1) the mean day at which the first offspring for the treatment group was determined and 2) the mean number of offspring produced daily once the aphid reached adulthood. Pictures of aphids were taken throughout the experiment to evaluate size differences between treatment groups. […]

[6] = system: Acyrthosiphon pisum aphids; assay: Aphid body area (size) measurement from images; format: in vivo; settings: eNASCO; 10 or 100 uM pantothenol in artificial diet; by 3 days post-treatment
Method: For adult aphids, new nymphs were counted daily and then discarded. At the end of the experiments, fecundity was determined as the mean number of offspring produced daily once the aphid reached adulthood. Pictures of aphids were taken throughout the experiment to evaluate size differences between treatment groups.
Each treatment group received approximately the same number of individuals from each of the collection plant. For each treatment, 20 aphids were placed onto each leaf. Aphids were monitored daily for survival and dead aphids were removed when they were discovered. In addition, the developmental stage (1st, 2nd, 3rd, 4th, 5th instar, and 5R, representing a reproducing 5th instar) was determined daily throughout the experiment. […]
as §4, with “adulthood.” for “adulthood. Pictures of aphids were taken throughout the experiment to evaluate size differences between treatment groups.”
Aphids LSR-1 (which harbor only Buchnera), Acyrthosiphon pisum were grown on fava bean plants (Vroma vicia faba from Johnny's Selected Seeds) in a climate-controlled incubator (16 h light/8 h dark photoperiod; 60±5% RH; 25±2° C.). […] Aphids were monitored daily for survival and dead aphids were removed from the deep petri dish when they were discovered. […]

[7] = system: gram-negative and gram-positive bacteria as well as fungi; settings: cited from earlier work
[8] = LSR-1, 100 μg/ml rifampicin in artificial diet without essential amino acids, through plants

With `CC(=O)CCC(=O)O` [levulinic acid] the “Buchnera/aphid DNA copies, fold less than control” value (endosymbiotic Buchnera; 0.03 or 0.3% levulinic acid in water, 7 days) was ~6 -fold less, the Buchnera/aphid ratio (endosymbiotic Buchnera; 0.03 or 0.3% levulinic acid, seven and eleven days post-treatment) was “reduced endosymbiotic Buchnera” and the aphid developmental stage ([1]; eNASCO 1st and 2nd instar, 0.03 or 0.3% levulinic acid, leaf injection and through plant) was “Development was delayed; also recorded: resulted in delayed aphid development”. The “aphids that did not mature further than the 4th instar stage” value ([1]; 0.03% levulinic acid) was about 23%, the “aphids that did not mature further than the 4th instar stage” value ([1]; 0.3% levulinic acid) was about 63% and the aphid mortality ([2]; eNASCO, 0.03% levulinic acid, difference did not reach statistical significance) was “higher mortality compared to control treated aphids”. The aphid survival ([2]; eNASCO, 0.03 or 0.3% levulinic acid) was “dose-dependent decrease in survival; also recorded: decrease in insect survival” and the aphid survival ([2]; eNASCO, 0.3% levulinic acid, 11-day experiment) was “survival was significantly less”.

For `CO[C@H]1/C=C/O[C@@]2(C)Oc3c(C)c(O)c4c(O)c(c(/C=N/N5CCN(C)CC5)c(O)c4c3C2=O)NC(=O)/C(C)=C\C=C\[C@H](C)[C@H](O)[C@@H](C)[C@@H](O)[C@@H](C)[C@H](OC(C)=O)[C@@H]1C` [rifampicin, reference compound], the “Buchnera/aphid DNA copies, fold less than control” value (endosymbiotic Buchnera; LSR-1, 100 μg/ml rifampicin through plants, 7 days of treatment) was ~4 -fold less, the “all aphids succumbed to treatment by” value [2, 8] was at most 9 days and the “aphids began dying after” value [2, 8] was 1 days.

For `O=C/C=C/c1ccccc1` [trans-cinnemaldehyde], the antimicrobial activity [3] is given as “antimicrobial activity against both gram-negative and gram-positive organisms”, the “Buchnera/aphid DNA copies, fold less than control” value (endosymbiotic Buchnera; 0.5 and 5% of trans-cinnemaldehyde, 3 days) is given as ~870 -fold less and the “Buchnera/aphid DNA copies” value (endosymbiotic Buchnera; lowest concentration of trans-cinnemaldehyde (0.5%), 3 days) is given as “high ratios of Buchnera/aphid DNA copies”. The “Buchnera/aphid DNA (symbiont titer)” value (endosymbiotic Buchnera; trans-cinnemaldehyde 0.05%, 0.5%, 5%, 3 days post-treatment) was “reduced endosymbiotic Buchnera”, the aphid developmental stage ([1]; 5% trans-cinnemaldehyde) was “remained at the 1st instar stage throughout the course of the experiment” and the aphid developmental stage ([1]; LSR-1 1st and 2nd instar, trans-cinnemaldehyde 0.05%, 0.5%, 5% in water, leaf perfusion and through plants, 3 days) was “none of the aphids matured past the second instar stage”. For the same molecule, the aphid developmental stage ([1]; LSR-1 1st and 2nd instar, trans-cinnemaldehyde 0.05%, 0.5%, 5% in water, leaf perfusion and through plants, 3 days, listed as Trans-cinnemaldehyde) was “resulted in delayed aphid development” and the aphid survival rate ([2]; 0.05%, 0.5%, and 5% trans-cinnemaldehyde, 3 days) was “dose-dependent decrease in survival; also recorded: significantly lower”.

For `N=C(N)NCCC[C@H](N)C(=O)O` [arginine], the glutamine uptake [4] is listed as “inhibits glutamine uptake by the glutamine transporter”.

For `CC(C)(CO)[C@@H](O)C(=O)NCCCO` [pantothenol], the “Buchnera/aphid DNA copies” value (endosymbiotic Buchnera; 10 or 100 uM pantothenol, 8 days) was “does not affect Buchnera/aphid DNA copy number directly”, the “Buchnera/aphid DNA copies” value (endosymbiotic Buchnera; 10 or 100 uM pantothenol, 8 days, listed as Pantothenol) was “did not affect endosymbiotic Buchnera” and the aphid developmental stage ([1]; eNASCO 1st and 2nd instar, 10 or 100 uM pantothenol in artificial diet without essential amino acids, through plants) was “Development was delayed”. For the same molecule, the aphid developmental stage ([1]; eNASCO 1st and 2nd instar, 10 or 100 uM pantothenol in artificial diet without essential amino acids, through plants, listed as Pantothenol) was “delayed aphid development”, the aphid developmental stage ([1]; eNASCO 1st instar, leaf coating, 10 uM pantothenol in 0.025% Silwet L-77) was “did not affect aphid development” and the “growth of Plasmodium falciparium” value (Plasmodium falciparium) was “inhibits the growth of Plasmodium falciparium”. For the same molecule, the “mean number of offspring per day produced by reproducing aphids” value ([5]; 10 uM pantothenol (control approximately 7)) was “approximately 4 offspring/day”, the “mean number of offspring per day produced by reproducing aphids” value ([5]; 100 uM pantothenol (control approximately 7)) was about 5 offspring/day and the aphid reproduction [5] was “loss of aphid reproduction”. For the same molecule, the aphid reproduction ([5]; listed as Pantothenol) was “resulted in loss of reproduction”, the “mean day aphids began reproducing” value ([5]; all treatment groups (10 and 100 uM pantothenol)) was 7 days and the aphid survival ([2]; eNASCO, 10 or 100 uM pantothenol in artificial diet, through plants) was “increased aphid mortality; also recorded: negatively affected aphid fitness”. The aphid survival rate ([2]; eNASCO, leaf coating, 10 uM pantothenol) was “lower survival rates than aphids placed on coated leaves with the control solution”, the aphid survival rate ([2]; eNASCO, leaf coating, 10 uM pantothenol, listed as Pantothenol) was “resulted in aphid death” and the aphid area [6] was “drastic effect of pantothenol treatment; also recorded: smaller in area than untreated controls”.

With `Cc1cc2c(C(C)C)c(O)c(O)c(C=O)c2c(O)c1-c1c(C)cc2c(C(C)C)c(O)c(O)c(C=O)c2c1O` [gossypol, gossypol acetic acid] the “Buchnera/aphid DNA copies, fold less than control” value (endosymbiotic Buchnera; 0.25 and 0.5% of gossypol, 5 or 13 days) was ~4 -fold less, the “all aphids succumbed to treatment by” value ([2]; 0.5% gossypol) was at most 4 days and the “aphids began dying after” value ([2]; 0.5% gossypol) was 2 days.

B1: NCR335: cationic NCR peptide (peptide)
chain: MQIGKNMVETPKLDYVIIFFFLYFFFRQMIILRLNTTFRPLNFKMLRFWGQNRNIMKHRGQKVHFSLILSDCKTNKDCPKLRRANVRCRKSYCVPI
In the case of B1, the antimicrobial activities [7] is listed as “effective against gram-negative and gram-positive bacteria as well as fungi”.
